Measurements: US10144730B2, “Inhibitors of c-Jun-N-terminal kinase (JNK)” (Dana-Farber Cancer Institute, Inc., priority 2011, dated 2018)

What was measured:
Format in all cases: cell-based
[1] = test system: phosphorylation of RSK; assay: High-throughput microscopy, phosphorylation of RSK; details: Homo sapiens, A-375, A375 cells, anisomycin stimulation, read-out: Cellular EC50 pRSK
Protocol: (§1) A375 cells were stimulated with anisomycin (FIGS. 14A and 14C to 14F), IGF-1 (FIG. 14B), IL-6 (FIG. 14G), and TNF-α (FIG. 14H) for sixty minutes. The output of multiple signaling pathways was measured using high throughput microscopy at multiple concentrations of four JNK inhibitors and a control compound specific to each pathway DMSO (FIG. 14A), MK2206 (allosteric Akt inhibitor, Haoyuan Chemexpress Co., Limited. Hirai, et al., 2010) (FIG. 14B), PD0325901 (allosteric Mek inhibitor, Haoyuan Chemexpress Co., Limited. Barrett, et al., 2008) (FIGS. 14C and 14D), SB239063 (ATP-competitive p38 inhibitor, Haoyuan Chemexpress Co., Limited. Underwood et al., 2000) (FIGS. 14E and 14F), KIN001-040 (ATP-competitive JAK1,2,3 inhibitor, Haoyuan Chemexpress Co., Limited. Thompson et al., 2002) (FIG. 14G), and KIN001-208 (IKK inhibitor VIII, Haoyuan Chemexpress Co., Limited., Murata, et al., 2004) (FIG. 14H).
(§2) Cells were plated at 7500 cells/well in 96-well microscopy plates (Corning) in recommended media for 24 hours, and then starved in media lacking serum for 16 hours. Cells were pre-treated for 180 minutes with 10-fold stock solutions of JNK inhibitors and for 10 min with control compounds MK2206, PD0325901, SB239063, KIN040, and KIN208 and treated with 10-fold stock solutions of IGF-1, IL-6, TNF-α (all PeproTech), or anisomycin for 60 minutes. Cells were fixed in 2% paraformaldehyde for 10 min at room temperature and washed with PBS-T (Phosphate Buffered Saline, 0.1% Tween 20). Cells were permeabilized in methanol for 10 min at room temperature, washed with PBS-T, and blocked in Odyssey Blocking Buffer (LI-COR Biosciences) for 1 hour at room temperature. Cells were incubated overnight at 4° C. with antibody specific for Erk1/2(pT202/pY204), Akt(pS473), c-Jun(pS73), pP38(T180/Y182) and pSTAT3(Y705) (Cell Signaling Technology), pRSK1(S380) and pMSK1(S376) (Epitomics), and NF-κB (Santa Cruz Biotechnology) diluted 1:400 in Odyssey Blocking Buffer. Cells were washed three times in PBS-T and incubated with rabbit-specific secondary antibody labeled with Alexa Fluor 647 (Invitrogen) diluted 1:2000 in Odyssey Blocking Buffer. Cells were washed once in PBS-T and once in PBS and incubated in 250 ng/ml Hoechst 33342 (Invitrogen) and 1:1000 Whole Cell Stain (blue; Thermo Scientific) solution. Cells were washed twice with PBS and imaged in an imageWoRx high-throughput microscope (Applied Precision). Data were plotted using DataPflex. […]

[2] = test system: c-Jun phosphorylation; assay: High throughput microscopy of c-Jun phosphorylation in A375 cells; details: Homo sapiens, A-375
Protocol: Cells were fixed in 2% paraformaldehyde for 10 min at room temperature and washed with PBS-T (Phosphate Buffered Saline, 0.1% Tween 20). Cells were permeabilized in methanol for 10 min at room temperature, washed with PBS-T, and blocked in Odyssey Blocking Buffer (LI-COR Biosciences) for 1 hour at room temperature. Cells were incubated overnight at 4° C. with antibody specific for Erk1/2(pT202/pY204), Akt(pS473), c-Jun(pS73), pP38(T180/Y182) and pSTAT3(Y705) (Cell Signaling Technology), pRSK1(S380) and pMSK1(S376) (Epitomics), and NF-κB (Santa Cruz Biotechnology) diluted 1:400 in Odyssey Blocking Buffer. […] Cells were washed twice with PBS and imaged in an imageWoRx high-throughput microscope (Applied Precision). Data were plotted using DataPflex.
(§3) In parallel with biochemical evaluation, the ability of the compounds to inhibit JNK activity in cells was investigated using two independent assays formats. This is a critical issue because there are several reported JNK inhibitors with nanomolar biochemical potency that translate into micromolar cellular inhibitors. The most well characterized direct phosphorylation substrate of JNK is the transcription factor c-Jun.

[3] = test system: phosphorylation of Akt; assay: High-throughput microscopy, phosphorylation of Akt; details: Homo sapiens, A-375, A375 cells, IGF-1 stimulation, read-out: Cellular EC50 pAkt
Protocol: as §1, §2

[4] = test system: phosphorylation of STAT3; assay: High-throughput microscopy, phosphorylation of STAT3; details: Homo sapiens, A-375, A375 cells, IL-6 stimulation, read-out: Cellular EC50 pSTAT3
Protocol: as §1, §2

[5] = test system: c-Jun phosphorylation; assay: LanthaScreen TR-FRET cell assay for c-Jun phosphorylation in HeLa cells; details: Homo sapiens; Hela cells, TNF-α stimulation; read-out: p-c-Jun EC50 (nM) Hela
Protocol: Phosphorylation was determined by measuring the time resolved FRET (TR-FRET) between a terbium labeled phospho-c-Jun specific antibody and GFP. The cells were plated in white tissue culture treated 384 well plates at a density of 10,000 cell per well in 32 μL assay medium (Opti-MEM®, supplemented with 0.5% charcoal/dextran-treated FBS, 100 U/ml penicillin and 100 μg/ml streptomycin, 0.1 mM nonessential amino acids, 1 mM sodium pyruvate, 25 mM Hepes, pH 7.3, and lacking phenol red). After overnight incubation, cells were pretreated for 90 minutes with compound (at indicated concentration) diluted in 4 μL assay buffer followed by 30 min of stimulation with 5 ng/ml of TNF-α in 4 μL assay buffer (final assay volume was 40 μl). The medium was then removed by aspiration, and the cells were lysed by adding 20 μl of lysis buffer (20 mM Tris-HCl, pH 7.6, 5 mM EDTA, 1% Nonidet P-40 substitute, 5 mM NaF, 150 mM NaCl, and 1:100 protease and phosphatase inhibitor mix, SIGMA P8340 and P2850, respectively). The lysis buffer included 2 nM of the terbium-labeled anti-c-Jun (pSer73) detection antibodies (Life Technologies). After allowing the assay to equilibrate for 60 minutes at room temperature, TR-FRET emission ratios were determined on a BMG Pherastar fluorescence plate reader (BMG Labtech, Cary, N.C.) using the following parameters: excitation at 340 nm; emission at 520 nm and 490 nm; 100 μs lag time; 200 μs integration time; and emission ratio=Em520/Em490. All data were analyzed and plotted using Graphpad Prism 4.
as §3

[6] = test system: phosphorylation of Erk; assay: High-throughput microscopy, phosphorylation of Erk; details: Homo sapiens, A-375, A375 cells, anisomycin stimulation, read-out: Cellular EC50 pErk
Protocol: as §1, §2

[7] = A375 cells, anisomycin stimulation, high-throughput microscopy, Table 4, read-out: Cellular EC50 pc-Jun
[8] = A375 cells, anisomycin stimulation, read-out: p-c-Jun EC50 (nM) A375

EC50 [1]	EC50 [2, 7]	EC50 [2, 8]	EC50 [3]	EC50 [4]	EC50 [5]	EC50 [6]	EC50 ([2]; Table 5, A375, read-out: E50/A375)	Compound
> 10000 nM	125 nM	134 nM	> 10000 nM	> 10000 nM	605 nM	> 10000 nM		CN(C)C/C=C/C(=O)Nc1cccc(C(=O)Nc2ccc(Nc3nccc(/C(C#N)=C4\Nc5ccccc5S4)n3)cc2)c1 [JNK-IN-12]
> 10000 nM	425 nM	338 nM	> 10000 nM	> 10000 nM	486 nM	> 10000 nM	338 nM	Cc1cc(NC(=O)c2cccc(NC(=O)/C=C/CN(C)C)c2)ccc1Nc1nccc(-c2cccnc2)n1 [JNK-IN-8]
